Measurements as given in patent US8716231B2, “Use of benzo-fused heterocycle sulfamide derivatives for the treatment of pain” (Janssen Pharmaceutica NV, priority 2005, dated 2014).
Where “and” joins values, the source holds several entries; their conditions need not be identical. Equal values may be shown once.

How the values were obtained:
[1] = tested on: mechanical (tactile) allodynia after L5 nerve ligation; assay: Rat Chung Model of Neuropathic Pain (Example 14); type: in vivo, Sprague Dawley rats
Text: The rat Chung model is an assay used in determining whether a compound is useful for the treatment of neuropathic pain (Kim and Chung, 1994; Chaplan et al., 1994).
In this study, male Sprague Dawley rats (145-165 g; Harlan) were anesthetized and the L5 nerve was isolated and ligated with silk suture material resulting in mechanical allodynia. […] The results were normalized and results are presented as % MPE ([…]) of the drug.

[2] = tested on: tactile allodynia in L5 SNL rats (von Frey withdrawal threshold); assay: Lumbar 5 (L5) Spinal Nerve Ligation (Chung) Model of Neuropathic Pain, Studies A-D; type: in vivo, Sprague-Dawley rats; conditions: for withdrawal thresholds: 2 hrs, 4 hrs and 6 hrs after oral administration
Text: The rat Chung model is an assay used in determining whether a compound is useful for the treatment of neuropathic pain (Kim and Chung, 1994; Chaplan et al., 1994). In this assay, injury to the sciatic nerve by loose ligation with chromic gut suture, tight ligation of the L5 spinal nerve with silk suture or partial tight ligation with silk suture each produces hypersensitivity to many stimulus modalities (e.g., touch, pressure, temperature) that lasts for weeks or months. Hypersensitivity produced by such injuries is reminiscent of allodynia and hyperalgesia observed in clinical conditions of neuropathic pain caused by mechanical nerve injury, diabetes and chemotherapy. This assay is predictive of analgesic, antiallodynic and/or antihyperalgesic effect of test compounds.
Test compound and controls were dissolved in the appropriate volume of 0.5% HPMC or 10% solutol in 0.5% hydoxypropyl methylcellulose (HPMC). HPMC served as the vehicle for preparation of gabapentin solutions used as the positive control. Solutions were prepared to provide the final dose in a volume of 2.5 mL/kg or 5 mL/kg p.o. for rats. Male, Sprague-Dawley rats from Harlan Industries (Indianapolis, Ind.), weighing 150 to 250 grams at the time of surgery, were used for L5 SNL studies.
Rats in the SNL studies were housed and tested in the same room. Animals were housed in micro-isolator cages in groups of four rats per cage or 5 mice per cage with corncob bedding and free access to food and water. The environment was maintained at a constant temperature of 21° C., with a 12-hour light/dark cycle. Rats undergoing L5 SNL surgery were placed into individual housing cages with alpha dry bedding and had access to enrichment food, food pellets and water ad libitum. Animals were allowed four to six weeks recovery from surgery prior to testing and were not tested beyond eight weeks post-surgery. For L5 SNL testing, only those animals that responded to less than 4 gr force were included in further testing and analysis, being randomized into treatment groups on the day of study. In all tests, the investigator performing the behavioral analysis was blinded to the treatment administered to any individual animal.
For L5 SNL surgery, rats were induced and maintained on isoflurane inhalation anesthesia. A 2-cm skin incision was made just left of midline over the dorsal aspect of the L4-S2 spinal segments, followed by separation of the paraspinal muscles from spinous processes. The transverse process of L6 was then carefully removed and the L5 spinal nerve was identified. The left L5 spinal nerve was then ligated tightly with 6-0 silk thread, the muscle was sutured with 4-0 vicryl, and the skin was closed with wound clips.
Behavioral testing was performed on L5SNL rats at a time between 3-6 weeks post-ligation. […] Tactile allodynia was quantified at 30 min, 1 hr, 2 hrs, 4 hrs, 6 hrs, 8 hrs and/or 24 hr post-dosing by recording the force at which the paw ipsilateral to the nerve ligation was withdrawn from the application of a series of calibrated von Frey filaments (0.4, 0.7, 1.2, 2.0, 3.6, 5.5, 8.5 and 15.1 g; Stoelting; Wood Dale, Ill.). Beginning at an intermediate stiffness (2.0 g), filaments were applied to the mid-plantar hind paw for approximately 5 seconds. A brisk paw withdrawal led to the presentation of the next lighter stimulus and the lack of a withdrawal response led to the presentation of the next stronger stimulus to determine the response threshold. A total of four responses after the first threshold detection were collected. The 50% withdrawal thresholds were interpolated by the method of Dixon (as described in Meert T F and Vermeirsch, H A, Pharmacol. Biochem. Behav.; 2005, 80(2), pp 309-326) and when response thresholds fell above or below the range of detection, respective values of 15.0 or 0.25 g were assigned. […]

[3] = tested on: acetic acid-induced abdominal stretching; assay: Acetic Acid-induced Abdominal Constriction Model of Visceral Pain; type: in vivo, CD-1 mice; conditions: 560 mg/kg oral; for number of abdominal stretches: not statistically significant (vehicle 13 to 16.2)
Protocol: The purpose of this assay was to determine whether Compound #8 reverses hypersensitivity in visceral, inflammatory and neuropathic models of pain.
Test compound and controls were dissolved in the appropriate volume of 0.5% HPMC or 10% solutol in 0.5% hydoxypropyl methylcellulose (HPMC). HPMC served as the vehicle for preparation of gabapentin solutions used as the positive control. Solutions were prepared to provide the final dose in a volume of 10 mL/kg orally (p.o.) for mice. Male CD-1 mice from Charles Rivers Laboratories (Portage, Me.), weighing between 25 and 30 grams at the time of study, were used for the acetic acid-induced abdominal stretching studies.
Mice in the acetic acid-induced abdominal stretching study were allowed 1 hr to acclimate to the testing room before the start of the study. Animals were housed in micro-isolator cages in groups of four rats per cage or 5 mice per cage with corncob bedding and free access to food and water. The environment was maintained at a constant temperature of 21° C., with a 12-hour light/dark cycle.
Animals used in the acetic acid-induced abdominal stretching test were maintained with original cage mates throughout the study period (four rats per cage, 5 mice per cage; cages were Nalgene® with corn cob bedding). Animals from several cages were randomly assigned across treatment groups; that is, mice in a given cage were pseudo-randomly assigned to different treatment groups. In all tests, the investigator performing the behavioral analysis was blinded to the treatment administered to any individual animal.
Mice were then given an i.p injection of 0.5 mL (2×0.25 mL/abdominal quadrant) of 0.6% acetic acid following 1 hr, 2 hrs, 3 hrs or 4 hours treatment with vehicle, compound or positive control. Five minutes after i.p acetic acid injection, 5 animals were placed into separate bell jars containing a small amount of bedding chips, and the number of abdominal stretches per animal was recorded for 5 minutes. This was repeated for each group (N=10 mice/group). […]

For NS(=O)(=O)NC[C@H]1COc2cc(Cl)ccc2O1 [Compound #8, (2S)-(−)-N-(6-Chloro-2,3-dihydro-benzo[1,4]dioxin-2-ylmethyl)-sulfamide], the “time at which efficacy peaked” value ([1]; 120 mg/kg p.o.) was 1 h, the “time at which efficacy was observed” value ([1]; 120 mg/kg p.o.) was 30 min and the “time post-dosing at which efficacy was sustained” value ([1]; 120 mg/kg p.o.) was 4 h. The “time at which efficacy peaked” value ([1]; 240 mg/kg, po) was 2 to 4 h, the “time at which efficacy was observed” value ([1]; 240 mg/kg, po) was 30 min and the “time post-dosing at which efficacy was sustained” value ([1]; 240 mg/kg, po) was 24 h. The “% reversal (withdrawal threshold)” value ([2]; Study A, 120 mg/kg oral, 1 hr) was 42.2±13.8%, the “% reversal (withdrawal threshold)” value ([2]; Study A, 120 mg/kg oral, 4 hrs) was 45.4±12.2% and the “% change (withdrawal threshold)” value ([2]; Study A, 240 mg/kg, 4 hr) was 65.6±21.1%. For the same compound, the withdrawal thresholds ([2]; Study A) was “significantly increased withdrawal thresholds”, the “reversal in tactile hypersensitivity, peak effect” value ([2]; Study B, first administration (Day 1), 480 mg/kg, 4 hrs after dosing, three weeks after surgery) was 64.3±9.9% and the “reversal in tactile hypersensitivity” value ([2]; Study B, first administration, other treatment groups (60, 120, 240 mg/kg)) was “No significant differences were observed”. The “reversal of tactile hypersensitivity” value ([2]; Study B, third and seventh day of daily dosing, 60-480 mg/kg) was “none of the treatment groups exhibited a significant reversal of tactile hypersensitivity”, the “effect on mechanical allodynia” value ([2]; Study C, 100 mg/kg, 300 mg/kg or 560 mg/kg, p.o., 4 weeks after surgery) was “did not show a statistically significant effect up to 6 hrs” and the “decrease in mechanical allodynia” value ([2]; Study D, 560 mg/kg p.o. in 10% solutol in HPMC, four weeks after surgery) was “showed a decrease in mechanical allodynia at 4 hrs and 6 hrs post dosing, but with a p=0.054”. The “effect on acetic acid-induced stretching” value ([3]; compared with vehicle- or gabapentin-treated mice) was “did not significantly modify acetic acid-induced stretching”.
NCC1(CC(=O)O)CCCCC1 [gabapentin, reference compound] was tested, and the “effect of positive control on mechanical allodynia” value ([1]; 480 mg/kg p.o.) was “equivalent to the activity measured for Compound #8 at 240 mg/kg dosing”, the “% reversal (withdrawal threshold)” value ([2]; Study A, 480 mg/kg, 2 hrs post-dosing, six weeks after surgery) was 73.2±14.7% and the “% reversal (withdrawal threshold)” value ([2]; Study A, 480 mg/kg, 4 hrs post-dosing, six weeks after surgery, 480 mg/kg) was 73.7±16.6% and 73.4±15.2%. The withdrawal thresholds ([2]; Study A) was “significantly increased withdrawal thresholds”, the “% reversal of mechanical allodynia relative to baseline” value ([2]; Study C, 560 mg/kg, 2 hrs post dosing) was 58.7% and the “% reversal of mechanical allodynia relative to baseline” value ([2]; Study C, 560 mg/kg, 4 hrs post dosing) was 86.4%. For the same compound, the “decrease in mechanical allodynia relative to baseline” value ([2]; Study C, 560 mg/kg, 6 hrs post dosing) was “not at 6 hrs post dosing”, the “number of abdominal stretches” value ([3]; 2 hr after administration) was 11.00±1.5 stretches and the “number of abdominal stretches” value ([3]; 3 hr after administration) was 10.0±1.6 stretches.
